{"source": "paper PMC2709273", "about": "(The Journal of pharmacology and experimental therapeutics, 2008)", "key": {"α2β2 nAChRs": {"molecular_target": "α2β2 nAChRs (Rattus norvegicus, UniProt P12389+P12390)", "sequence (P12389 28-511)": "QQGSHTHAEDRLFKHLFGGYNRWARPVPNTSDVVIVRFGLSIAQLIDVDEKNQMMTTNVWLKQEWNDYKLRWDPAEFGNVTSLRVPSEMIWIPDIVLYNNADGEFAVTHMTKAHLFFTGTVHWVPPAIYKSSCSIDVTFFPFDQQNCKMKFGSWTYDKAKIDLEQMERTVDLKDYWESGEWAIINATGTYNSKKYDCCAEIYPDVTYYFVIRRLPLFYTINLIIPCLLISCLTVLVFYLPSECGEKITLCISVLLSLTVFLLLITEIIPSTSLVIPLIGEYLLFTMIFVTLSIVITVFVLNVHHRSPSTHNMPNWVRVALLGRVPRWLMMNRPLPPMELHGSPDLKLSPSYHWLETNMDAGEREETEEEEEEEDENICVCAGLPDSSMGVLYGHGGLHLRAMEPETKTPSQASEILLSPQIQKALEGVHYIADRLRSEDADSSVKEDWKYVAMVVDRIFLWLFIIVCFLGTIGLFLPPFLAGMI", "sequence (P12390 25-500)": "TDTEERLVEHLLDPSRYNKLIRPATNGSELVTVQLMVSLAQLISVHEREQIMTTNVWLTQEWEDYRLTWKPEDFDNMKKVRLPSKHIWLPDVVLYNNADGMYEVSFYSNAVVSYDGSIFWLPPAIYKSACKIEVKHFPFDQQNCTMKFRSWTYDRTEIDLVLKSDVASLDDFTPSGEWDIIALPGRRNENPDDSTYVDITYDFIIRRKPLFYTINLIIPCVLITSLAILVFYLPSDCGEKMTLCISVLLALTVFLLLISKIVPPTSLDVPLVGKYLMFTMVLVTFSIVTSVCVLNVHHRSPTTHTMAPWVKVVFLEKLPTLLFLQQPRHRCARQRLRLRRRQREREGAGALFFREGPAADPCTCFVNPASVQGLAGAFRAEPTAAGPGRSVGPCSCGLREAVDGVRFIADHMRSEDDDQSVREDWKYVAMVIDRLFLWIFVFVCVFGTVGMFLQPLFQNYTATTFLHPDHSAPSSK", "format": "cell-based"}, "α4β2 nAChRs": {"molecular_target": "α4β2 nAChRs (Rattus norvegicus, UniProt P09483+P12390)", "sequence (P09483 31-630)": "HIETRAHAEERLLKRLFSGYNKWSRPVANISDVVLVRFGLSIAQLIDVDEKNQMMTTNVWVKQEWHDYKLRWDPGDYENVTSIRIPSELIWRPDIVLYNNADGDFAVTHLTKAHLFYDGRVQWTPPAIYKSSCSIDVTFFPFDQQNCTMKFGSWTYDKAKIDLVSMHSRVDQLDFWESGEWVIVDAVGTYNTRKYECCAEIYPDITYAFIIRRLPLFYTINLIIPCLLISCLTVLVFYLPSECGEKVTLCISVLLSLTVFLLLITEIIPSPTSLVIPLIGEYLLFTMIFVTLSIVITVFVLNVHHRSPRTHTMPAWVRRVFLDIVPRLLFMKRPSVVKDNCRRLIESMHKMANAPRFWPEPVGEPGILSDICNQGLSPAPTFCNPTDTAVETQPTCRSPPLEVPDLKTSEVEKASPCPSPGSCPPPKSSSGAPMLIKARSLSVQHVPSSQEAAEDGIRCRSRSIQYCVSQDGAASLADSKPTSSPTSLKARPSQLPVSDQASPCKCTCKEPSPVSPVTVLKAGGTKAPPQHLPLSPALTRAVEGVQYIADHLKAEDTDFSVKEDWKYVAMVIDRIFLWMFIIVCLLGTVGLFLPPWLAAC", "sequence (P12390 25-500)": "as the sequence (P12390 25-500) above", "format": "cell-based"}, "[1]": {"molecular_target": "native α7-containing nAChRs (rat CA1 stratum radiatum interneurons) (Rattus norvegicus, UniProt Q05941)", "sequence (Q05941 23-502)": "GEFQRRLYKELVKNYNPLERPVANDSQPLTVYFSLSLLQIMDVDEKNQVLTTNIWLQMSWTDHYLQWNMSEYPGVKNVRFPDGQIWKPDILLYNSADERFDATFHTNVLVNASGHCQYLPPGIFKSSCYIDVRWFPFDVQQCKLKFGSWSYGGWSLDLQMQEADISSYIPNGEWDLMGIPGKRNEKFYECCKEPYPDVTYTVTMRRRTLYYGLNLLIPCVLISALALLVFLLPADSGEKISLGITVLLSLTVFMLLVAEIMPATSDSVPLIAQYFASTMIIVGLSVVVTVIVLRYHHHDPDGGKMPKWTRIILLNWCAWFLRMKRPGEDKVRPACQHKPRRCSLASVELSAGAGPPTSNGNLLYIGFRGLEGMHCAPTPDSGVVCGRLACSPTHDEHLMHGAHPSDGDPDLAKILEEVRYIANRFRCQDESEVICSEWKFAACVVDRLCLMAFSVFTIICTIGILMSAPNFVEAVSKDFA", "format": "cell-based"}, "α7 nAChRs [2]": {"molecular_target": "T1, α7 nAChRs (Rattus norvegicus, UniProt Q05941)", "T1 sequence (Q05941 23-502)": "as above", "format": "cell-based"}, "[3]": {"molecular_target": "homomeric α7 nicotinic acetylcholine receptor expressed in X. laevis oocytes (UniProt Q05941)", "sequence (Q05941 23-502)": "as above"}, "α7 nAChRs [4]": {"molecular_target": "T1, α7 nAChRs", "conditions": "native and expressed receptors, cited from earlier work"}, "[5]": {"conditions": "heteromeric nAChRs, X. laevis oocytes"}}, "note": "“Also recorded” adds a separate entry of the source. Like-named read-outs stand apart in the source and are kept apart here. Where a SMILES comes first, the peptide text is derived from it."}
{"compound": "CC(=O)N[C@@H](CCCCN)C(=O)N[C@@H](CCCCN)C(=O)N[C@@H](CCCCN)C(=O)N[C@@H](CCCCN)C(=O)N[C@@H](CCCCN)C(=O)N[C@@H](CCCNC(=N)N)C(=O)N[C@@H](Cc1ccccc1)C(=O)N[C@@H](CO)C(=O)N[C@@H](Cc1ccccc1)C(=O)N[C@@H](CCCCN)C(=O)N[C@@H](CCCCN)C(=O)N[C@@H](CO)C(=O)N[C@@H](Cc1ccccc1)C(=O)N[C@@H](CCCCN)C(=O)N[C@@H](CC(C)C)C(=O)N[C@@H](CO)C(=O)NCC(=O)N[C@@H](Cc1ccccc1)C(=O)N[C@@H](CO)C(=O)N[C@@H](Cc1ccccc1)C(=O)N[C@@H](CCCCN)C(=O)N[C@@H](CCCCN)C(=O)N[C@@H](CC(N)=O)C(=O)N[C@@H](CCCCN)C(=O)N[C@@H](CCCCN)C(N)=O", "note": "[MARCKS ED peptide] (Ac-KKKKKRFSFKKSFKLSGFSFKKNKK-NH2)", "values": [{"measurement": "potency at α2β2 compared with α7 nAChRs", "setting": "α2β2 nAChRs; IC50 comparison by F test", "result": "decreased potency; also recorded: less potent inhibition"}, {"measurement": "dissociation from α2β2 nAChRs relative to α7", "setting": "α2β2 nAChRs; [5]", "result": "appears to dissociate more rapidly from heteromeric nAChRs"}, {"measurement": "potency at α4β2 compared with α7 nAChRs", "setting": "α4β2 nAChRs; IC50 comparison by F test", "result": "decreased potency; also recorded: less potent inhibition"}, {"measurement": "dissociation from α4β2 nAChRs relative to α7", "setting": "α4β2 nAChRs; [5]", "result": "appears to dissociate more rapidly from heteromeric nAChRs"}, {"measurement": "block of native α7 nAChRs in hippocampal interneurons (in words)", "setting": "[1]; acute rat hippocampal slices", "result": "able to block native α7 nAChRs in a dose-dependent manner"}, {"measurement": "effect on baseline current in hippocampal interneurons", "setting": "[1]; bath application", "result": "no effect"}, {"measurement": "onset of inhibition, hippocampal slices", "setting": "[1]; bath application", "result": "slow"}, {"measurement": "inhibition at 1 µM", "setting": "[1]; read-out: inhibition of ACh-evoked responses in hippocampal interneurons, 1 µM", "result": "59 ± 13", "unit": "%"}, {"measurement": "inhibition at 3 µM", "setting": "[1]; read-out: inhibition of ACh-evoked responses in hippocampal interneurons, 3 µM", "result": "92 ± 2", "unit": "%"}, {"measurement": "inhibition at 10 µM", "setting": "[1]; read-out: inhibition of ACh-evoked responses in hippocampal interneurons, 10 µM", "result": 100, "unit": "%"}, {"measurement": "recovery of responses after washout, hippocampal slices", "setting": "[1]; within 20 min of washout, two to three interneurons", "result": "do not recover after MARCKS ED peptide inhibition"}, {"measurement": "inhibition not because of open channel block", "setting": "α7 nAChRs [2]; 1 µM peptide, +30 vs -60 mV", "result": 86, "unit": "%"}, {"measurement": "voltage-dependent part of the inhibition", "setting": "α7 nAChRs [2]; 1 µM peptide, +30 vs -60 mV", "result": 14, "unit": "%"}, {"measurement": "onset of inhibition", "setting": "α7 nAChRs [2]; 1 µM, X. laevis oocytes", "result": "rapid"}, {"measurement": "voltage dependence of inhibition", "setting": "α7 nAChRs [2]; +30 and -60 mV", "result": "activity- and voltage-independent; also recorded: voltage- and activity-independent"}, {"measurement": "inhibition of ACh-evoked α7 nAChR responses (in words)", "setting": "α7 nAChRs [2]; X. laevis oocytes", "result": "completely inhibited"}, {"measurement": "washout / recovery from inhibition", "setting": "α7 nAChRs [2]; X. laevis oocytes", "result": "slow and slow recovery during washout and slow to recover with washout"}, {"measurement": "activity (use) dependence of inhibition", "setting": "α7 nAChRs [2]; peptide bath applied 10 min without ACh stimulation, then ACh", "result": "activity- and voltage-independent; also recorded: there was not a use-dependent component of the peptide block; also recorded: voltage- and activity-independent"}, {"measurement": "inhibition at 1 µM", "setting": "α7 nAChRs [2]; read-out: activity-independent inhibition of α7 nAChRs", "result": "98 ± 2", "unit": "%"}, {"measurement": "inhibition at 1 µM", "setting": "α7 nAChRs [2]; read-out: inhibition of ACh-induced α7 nAChR peak current responses", "result": "99 ± 0.2", "unit": "%"}, {"measurement": "inhibition at 0.1 µM", "setting": "α7 nAChRs [2]; read-out: inhibition of α7 ACh responses at 100 nM", "result": "90 ± 2", "unit": "%"}, {"measurement": "inhibition at 1 µM", "setting": "α7 nAChRs [2]; read-out: inhibition still present after washout", "result": "82 ± 3", "unit": "%"}]}
{"compound": "KKKKKRFDFKKDFKLDGFDFKKNK [MARCKS S/D]", "values": [{"measurement": "inhibition of ACh-evoked α7 nAChR responses (in words)", "setting": "α7 nAChRs [2]; X. laevis oocytes", "result": "unable to inhibit ACh-mediated α7 nAChR responses; also recorded: lack of inhibition of nAChR responses"}]}
{"compound": "MARCKS154–165: truncated form of the MARCKS ED peptide, purchased from AnaSpec (KKKRFSFKKSFK; UniProt P29966 154-165, looked up, fragment)", "values": [{"measurement": "inhibition of ACh-evoked α7 nAChR responses (in words)", "setting": "α7 nAChRs [2]; X. laevis oocytes", "result": "unable to significantly inhibit α7 nAChRs"}]}
{"compound": "MARCKS159–165: truncated form of the MARCKS ED peptide, purchased from AnaSpec (SFKKSFK; UniProt P29966 159-165, looked up, fragment)", "values": [{"measurement": "inhibition of ACh-evoked α7 nAChR responses (in words)", "setting": "α7 nAChRs [2]; X. laevis oocytes", "result": "unable to significantly inhibit α7 nAChRs"}]}
{"compound": "MARCKS_(154–165) peptide", "values": [{"measurement": "percentage block of ACh-evoked α7 nAChR current in oocytes, peptide 1 µM", "setting": "[3]", "result": 12, "unit": "%"}]}
{"compound": "MARCKS_(159–165) peptide", "values": [{"measurement": "percentage block of ACh-evoked α7 nAChR current in oocytes, peptide 1 µM", "setting": "[3]", "result": 5, "unit": "%"}]}
{"compound": "β-Amyloid1–42: brain-derived peptide β-amyloid1–42", "values": [{"measurement": "effect on α7 nAChRs", "setting": "α7 nAChRs [4]; ref Dineley et al., 2002, Dougherty et al., 2003", "result": "agonism"}, {"measurement": "effect on α7 nAChRs", "setting": "α7 nAChRs [4]; ref Liu et al., 2001, Grassi et al., 2003", "result": "almost complete antagonism"}, {"measurement": "effect on α7 nAChRs", "setting": "α7 nAChRs [4]; ref Pettit et al., 2001, Lamb et al., 2005", "result": "minimal to no antagonism"}]}
